Laboratory results from patent US12642791B2, “Inhibitors of lysyl oxidases” (UNIVERSITY OF SOUTH CAROLINA, priority 2021, dated 2026).

Tests used:
4T1 = test: Syngeneic TNBC tumor model; format: in vivo, BALB/c mice
Experimental: FIG. 43. 6403 overcomes doxorubicin resistance without major toxicity in a syngeneic mouse model, 4T1. A. Tumor growth in 4T1 model treated with doxorubicin (2 mg/kg, I.V, weekly), 6403 (50 mg/kg, P.O, daily) or their combination. Representative pictures of the tumors shown on the right panel. B. Western blot analysis of LOX in 4T1 tumors from A. C. % body weight change of mice from A. D. Blood cell counts in mice from A at the end of the experiment. 500,000 4T1 cells were injected into MFP of 6-8 weeks old female BALB/c mice. When the tumors reach 100 mm3, mice were randomly distributed to 4 groups and treated with vehicle, doxorubicin (2 mg/kg once a week, I.V.), 6403 (50 mg/kg daily, oral gavage) or the combination of doxorubicin with 6403. Tumor volumes were measured using a caliper every two days, and body weights were also recorded. After 3 weeks of treatment, blood was withdrawn, and blood cells were quantified using VetScan HM5 Hematology Analyzer.

In vivo toxicity testing = test: In vivo toxicity testing; set-up: species or system BALB/c mice
Experimental: FIG. 41. In vivo testing of 6403 with respect to PK and toxicity. A. Summary of PK parameters of 6403 given orally with 50 mg/kg, n=3. B. H&E staining of organs of BALB/c mice treated daily with 50 or 200 mg/kg of 6403 for one week. C. Body weight of mice treated with vehicle or 25, 50, 75, 100 or 200 mg/kg of 6403 for 5 days. D. Cell-free enzymatic MAO-A and MAO-B assay.

PK analysis = format: in vivo, BALB/c mice; conditions: mice, orally 50 mg/kg, n=3
Experimental: PK profiles of Lead LOX inhibitor, 6403 was tested in BALB/c mice. Three mice per group were dosed by oral gavage at 50 mg/kg. Serum samples were collected at time points; 0.25, 0.5, 2, 7 and 24 hours. 6403 was diluted with serum from healthy mice as standard and serum levels of LOX inhibitors were quantified by LC-MS/MS methods, compared to the standard readings and followed by calculation of PK parameters, including Cmax, AUC, T1/2 values, clearance (Cl) and oral bioavailability (F %). Cmax represents the maximum concentration of drug that observed in the serum. AUC is a measure of the total exposure of the drug in the serum. T1/2, half-life, is the time required to eliminate half of the drug. Cl is defined as the volume of blood from which all drug is removed per minute.

Caki-1 cells = test: ECM crosslinking in kidney cancer cells; format: cell-based, human; conditions: 6232 at 10 uM, BAPN at 10 mM
Experimental: Immunofluorescence staining of cells was done in μ-Slide 8-well glass bottom chambers (Ibidi, Germany). Cells were fixed with 4% paraformaldehyde for 20 min, permeabilized with 0.5% Triton X-100 for 10 min and blocked in 5% BSA-PBS. Samples were incubated with primary (Collagen I, Fibronectin, F-actin, a-SMA) and secondary Alexa Fluor 647 or 488-labeled antibodies for 1.5 hours at room temperature. Cells were also counterstained with DAPI for 5 min. Images were acquired using ZEN 2012 SP5 (Black) LSM 700 (Carl Zeiss, DE).

| blood counts (4T1; combination, 21-day treatment) | Area Under the Curve (AUC) (PK analysis) | clearance (Cl) (PK analysis) | half-life (T½) (PK analysis) | maximum concentration (Cmax) (PK analysis) | volume of distribution (Vd) (PK analysis) | SMILES | tumor growth (4T1; 6403 50 mg/kg P.O. daily with doxorubicin 2 mg/kg I.V. weekly, vs either alone) | body weights (4T1; combination, 21-day treatment) | blood cell counts (In vivo toxicity testing; 200 mg/kg vs vehicle) | organ damage (H&E staining of organs) (In vivo toxicity testing; 50 or 200 mg/kg daily for one week) | body weight (In vivo toxicity testing; different doses administered daily (25-200 mg/kg, 5 days)) | ECM crosslinking (Caki-1 cells) |
| --- | --- | --- | --- | --- | --- | --- | --- | --- | --- | --- | --- | --- |
| no significant change | high | low | long | high | high | CC(=O)Nc1ccc(Nc2nc(-c3sc(N)nc3C)cs2)cc1 [compound 6403, N-[4-[[4-(2-amino-4-methyl-thiazol-5-yl)thiazol-2-yl]amino]phenyl]acetamide] | significantly reduced tumor growth | no significant change | No significant effect | did not lead to any observable organ damage | No significant effect |  |
|  |  |  |  |  |  | Cc1nc(N)sc1-c1csc(Nc2ccc([N+](=O)[O-])cc2)n1 [compound 6232, 4-methyl-5-[2-(4-nitroanilino)thiazol-4-yl]thiazol-2-amine] |  |  |  |  |  | decrease in ECM crosslinking |
